Reference: US8937067B2, “Activators of human pyruvate kinase” (The United States of America, as represented by the …, priority 2008, dated 2015)

Biological target: hPK-M2 (Homo sapiens, UniProt P14618)
Assay: Luminescent pyruvate kinase-luciferase coupled assay (KinaseGlo)
Assay type: biochemical
Settings: for activation at 57 µM / hPK, M2 Max. Res.: KinaseGlo, % activation at 57 μM of compound; for activation at 57 µM: read-out: hPK, M2 Max. Res.; for AC50: luminescent pyruvate kinase-luciferase coupled assay (KinaseGlo), tables, read-out: hPK, M2 AC50
Procedure: Luminescent Pyruvate Kinase-Luciferase Coupled Assay.
Production of a luminescent signal based on the generation of ATP by pyruvate kinase was determined by using the ATP-dependent enzyme firefly luciferase. Three μL of substrate mix (at r.t.) in assay buffer (50 mM imidazole pH 7.2, 50 mM KCl, 7 mM MgCl2, 0.01% tween 20, 0.05% BSA) was dispensed into Kalypsys white solid bottom 1,536 well microtiter plates using a bottle-valve solenoid-based dispenser (Kalypsys). The final concentrations of substrates in the assay were 0.1 mM ADP and 0.5 mM PEP. […] Microtiter plates were incubated at r.t. for 1 hour and 2 uL of luciferase detection mix (Kinase-Glo, Promega at 4° C. protected from light) was added and luminescence was read with a ViewLux (Perkin Elmer) using a 5 second exposure/plate. Data was normalized for AC50 values to control columns containing uninhibited enzyme (n), and AC100 inhibition (i) according the following equation: Activation (%)=[(c−n)/(n−i)]*100 where c=compound, n=DMSO neutral, i=no enzyme control. […] Monitoring of activation was accomplished using enzyme at 3× the final concentration.

Chain of hPK-M2 (P14618 whole entry): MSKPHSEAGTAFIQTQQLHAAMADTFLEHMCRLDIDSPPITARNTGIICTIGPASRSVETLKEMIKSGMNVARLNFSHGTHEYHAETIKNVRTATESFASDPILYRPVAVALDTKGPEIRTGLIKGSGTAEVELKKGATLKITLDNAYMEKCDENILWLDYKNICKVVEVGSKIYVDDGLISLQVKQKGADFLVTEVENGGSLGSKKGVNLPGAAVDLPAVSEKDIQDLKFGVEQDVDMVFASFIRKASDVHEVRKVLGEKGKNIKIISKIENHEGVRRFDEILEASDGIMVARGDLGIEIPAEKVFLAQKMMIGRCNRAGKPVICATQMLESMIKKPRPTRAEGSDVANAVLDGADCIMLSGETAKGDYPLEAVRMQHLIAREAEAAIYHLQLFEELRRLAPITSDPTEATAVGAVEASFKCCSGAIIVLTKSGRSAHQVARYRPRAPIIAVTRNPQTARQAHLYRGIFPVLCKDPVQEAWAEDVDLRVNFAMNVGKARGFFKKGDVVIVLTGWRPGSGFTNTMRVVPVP

| SMILES | activation at 57 µM [%] | AC50 [nM] | hPK, M2 Max. Res. [%] | PKM2 activation, result in words |
| --- | --- | --- | --- | --- |
| O=S(=O)(NC1CCN(S(=O)(=O)c2c(F)cccc2F)C1)c1ccc2c(c1)OCCO2 (centres unmarked) [Compound 41, N-(1-(2,6-difluorophenylsulfonyl)pyrrolidin-3-yl)-2,3-dihydrobenzo[b][1,4]dioxine-6-sulfonamide] | 82.4 ± 18 | > 15000 | – | – |
| O=S(=O)(NC1CCN(S(=O)(=O)c2ccc3c(c2)OCCO3)C1)c1c(F)cccc1F (centres unmarked) [Compound 42, N-(1-(2,3-dihydrobenzo[b][1,4]dioxin-6-ylsulfonyl)pyrrolidin-3-yl)-2,6-difluorobenzenesulfonamide] | 83.7 ± 24.2 | > 10000 | – | – |
| O=S(=O)(NCC1CN(S(=O)(=O)c2c(F)cccc2F)C1)c1ccc2c(c1)OCCO2 [Compound 43] | 93.3 ± 9 | 4470 | – | – |
| O=S(=O)(NCC1CN(S(=O)(=O)c2ccc3c(c2)OCCO3)C1)c1c(F)cccc1F [Compound 44, N-((1-(2,3-dihydrobenzo[b][1,4]dioxin-6-ylsulfonyl)azetidin-3-yl)methyl)-2,6-difluorobenzenesulfonamide] | 108 ± 5.3 | 3050 ± 200 | – | – |
| C[C@H]1CN(S(=O)(=O)c2c(F)cccc2F)CCN1S(=O)(=O)c1ccc2c(c1)OCCO2 [Compound 45, (S)-4-(2,6-difluorophenylsulfonyl)-1-(2,3-dihydrobenzo[b][1,4]dioxin-6-ylsulfonyl)-2-methylpiperazine] | 109 ± 9.4 | 4340 ± 740 | – | – |
| C[C@@H]1CN(S(=O)(=O)c2c(F)cccc2F)CCN1S(=O)(=O)c1ccc2c(c1)OCCO2 [Compound 46, (R)-4-(2,6-difluorophenylsulfonyl)-1-(2,3-dihydrobenzo[b][1,4]dioxin-6-ylsulfonyl)-2-methylpiperazine] | 98.8 ± 2.6 | 3100 ± 1170 | – | – |
| C[C@@H]1CN(S(=O)(=O)c2ccc3c(c2)OCCO3)CCN1S(=O)(=O)c1c(F)cccc1F [Compound 47, (R)-1-(2,6-difluorophenylsulfonyl)-4-(2,3-dihydrobenzo[b][1,4]dioxin-6-ylsulfonyl)-2-methylpiperazine] | 108 ± 9.9 | 9180 ± 2560 | – | – |
| C[C@H]1CN(S(=O)(=O)c2ccc3c(c2)OCCO3)CCN1S(=O)(=O)c1c(F)cccc1F [Compound 48, (S)-1-(2,6-difluorophenylsulfonyl)-4-(2,3-dihydrobenzo[b][1,4]dioxin-6-ylsulfonyl)-2-methylpiperazine] | 108 ± 8.4 | 2960 ± 200 | – | – |
| Cc1cc2c(s1)c1cnn(Cc3ccccc3F)c(=O)c1n2C [Compound 66, 2,4-Methyl-6-[(2-fluorophenyl)methyl]-4H-thieno[3,2-b]pyrrole[3,2-d]pyridazinone] | 122 ± 6.1 | 63 ± 20 | – | – |
| CCc1cc2c(s1)c1cnn(Cc3ccccc3F)c(=O)c1n2C [Compound 68, 2-Ethyl-4-methyl-6-[(2-fluorophenyl)methyl]-4H-thieno[3,2-b]pyrrole[3,2-d]pyridazinone] | 105 ± 5.8 | 100 ± 30 | – | – |
| Cn1c2ccsc2c2cnn(Cc3ccccc3F)c(=O)c21 [Compound 70, 4-Methyl-6-[(2-fluorophenyl)methyl]-4H-thieno[3,2-b]pyrrole[3,2-d]pyridazinone] | 93.2 ± 6.6 | 605 ± 180 | – | – |
| COc1cc2c(s1)c1cnn(Cc3ccccc3F)c(=O)c1n2C [Compound 71, 2-Methoxy-4-methyl-6-[(2-fluorophenyl)methyl]-4H-thieno[3,2-b]pyrrole[3,2-d]pyridazinone] | – | 86 ± 40 | – | – |
| CSc1cc2c(s1)c1cnn(Cc3ccccc3F)c(=O)c1n2C [Compound 72, 2-Methylthio-4-methyl-6-[(2-fluorophenyl)methyl]-4H-thieno[3,2-b]pyrrole[3,2-d]pyridazinone] | 96.3 ± 3.8 | 24 ± 10 | – | – |
| Cn1c2cc([N+](=O)[O-])sc2c2cnn(Cc3ccccc3F)c(=O)c21 [Compound 80, 2-Nitro-4-methyl-6-[(2-fluorophenyl)methyl]-4H-thieno[3,2-b]pyrrole[3,2-d]pyridazinone] | – | 18 ± 10 | – | – |
| CC(=O)Nc1cc2c(s1)c1cnn(Cc3ccccc3F)c(=O)c1n2C [Compound 81, 2-Acetylamido-4-methyl-6-[(2-fluorophenyl)methyl]-4H-thieno[3,2-b]pyrrole[3,2-d]-pyridazinone] | 58.6 ± 23.5 | – | – | – |
| Cn1c2cc(C#N)sc2c2cnn(Cc3ccccc3F)c(=O)c21 [Compound 82, 2-Cyano-4-methyl-6-[(2-fluorophenyl)methyl]-4H-thieno[3,2-b]pyrrole[3,2-d]pyridazinone] | 84.1 ± 5.5 | 47 ± 20 | – | – |
| COC(=O)c1cc2c(s1)c1cnn(Cc3ccccc3F)c(=O)c1n2C [Compound 83, Methyl 4-methyl-6-[(2-fluorophenyl)methyl]-4,1-thieno[3,2-b]pyrrole[3,2-d]pyridazinone-2-carboxylate] | 70.4 ± 12.9 | 84 ± 30 | – | – |
| Cn1c2cc(B(O)O)sc2c2cnn(Cc3ccccc3F)c(=O)c21 [Compound 86, 4-Methyl-6-[(2-fluorophenyl)methyl]-4,1-thieno[3,2-b]pyrrole[3,2-d]pyridazinone, 2-ylboronic acid] | 101 ± 1.4 | – | – | – |

| SMILES | activation at 57 µM [%] | AC50 [nM] | hPK, M2 Max. Res. [%] | PKM2 activation, result in words |
| --- | --- | --- | --- | --- |
| CC(O)c1cc2c(s1)c1cnn(Cc3ccccc3F)c(=O)c1n2C (centres unmarked) [Compound 88] | – | 136 ± 10 | 119.7 ± 2.6 | – |
| Cc1cc2[nH]c3c(=O)n(Cc4ccccc4F)ncc3c2s1 [Compound 89, 2-Methyl-6-[(2-fluorophenyl)methyl]-4H-thieno[3,2-b]pyrrole[3,2-d]pyridazinone] | 32.9 ± 3.8 | – | – | – |
| CCn1c2cc(C)sc2c2cnn(Cc3ccccc3F)c(=O)c21 [Compound 90, 2-Methyl-4-ethyl-6-[(2-fluorophenyl)methyl]-4H-thieno[3,2-b]pyrrole[3,2-d]pyridazinone] | – | 5900 ± 1700 | 95.6 ± 6.3 | – |
| CCCCCn1ncc2c3sc(C)cc3n(C)c2c1=O [Compound 102, 2,4-Methyl-6-pentyl-4H-thieno[3,2-b]pyrrole[3,2-d]pyridazinone] | – | – | – | marked loss of potency |
| Cc1cc2c(s1)c1cnn(Cc3ccccc3)c(=O)c1n2C [Compound 103, 2,4-Methyl-6-phenylmethyl-4H-thieno[3,2-b]pyrrole[3,2-d]pyridazinone] | – | 62 ± 20 | – | – |
| Cc1cc2c(s1)c1cnn(Cc3cccc(F)c3)c(=O)c1n2C [Compound 104] | 91.5 ± 8.4 | 225 ± 100 | – | – |
| Cc1cc2c(s1)c1cnn(Cc3ccc(F)cc3)c(=O)c1n2C [Compound 105, 2,4-Methyl-6-[(4-fluorophenyl)methyl]-4H-thieno[3,2-b]pyrrole[3,2-d]pyridazinone] | 102 ± 8.9 | 57 ± 20 | – | – |
| Cc1cc2c(s1)c1cnn(Cc3ccccc3Cl)c(=O)c1n2C [Compound 106, 2,4-Methyl-6-[(2-chlorophenyl)methyl]-4H-thieno[3,2-b]pyrrole[3,2-d]pyridazinone] | 95.6 ± 10 | 298 ± 140 | – | – |
| Cc1cc2c(s1)c1cnn(Cc3cccc(Cl)c3)c(=O)c1n2C [Compound 107, 2,4-Methyl-6-[(3-chlorophenyl)methyl]-4H-thieno[3,2-b]pyrrole[3,2-d]pyridazinone] | 99.1 ± 3.1 | 126 ± 10 | – | – |
| Cc1ccc(Cn2ncc3c4sc(C)cc4n(C)c3c2=O)cc1 [Compound 109, 2,4-Methyl-6-[(4-methylphenyl)methyl]-4H-thieno[3,2-b]pyrrole[3,2-d]pyridazinone] | 84.1 ± 5.5 | 356 ± 120 | – | – |
| Cc1cc2c(s1)c1cnn(Cc3cccc(F)c3F)c(=O)c1n2C [Compound 114, 2,4-Methyl-6-[(2,3-difluorophenyl)methyl]-4H-thieno[3,2-b]pyrrole[3,2-d]pyridazinone] | 72.8 ± 7.8 | 215 ± 60 | – | – |
| Cc1cc2c(s1)c1cnn(Cc3c(F)cccc3Cl)c(=O)c1n2C [Compound 115, 2,4-Methyl-6-[(2-chloro-6-fluorophenyl)methyl]-4H-thieno[3,2-b]pyrrole[3,2-d]pyridazinone] | 92.9 ± 4.1 | 60 ± 20 | – | – |
| Cc1cc2c(s1)c1cnn(Cc3ccc(F)c(F)c3F)c(=O)c1n2C [Compound 116, 2,4-Methyl-6-[(2,3,4-trifluorophenyl)methyl]-4H-thieno[3,2-b]pyrrole[3,2-d]pyridazinone] | 69.2 ± 14.6 | 174 ± 70 | – | – |
| Cc1cc2c(s1)c1cnn(Cc3c(F)c(F)cc(F)c3F)c(=O)c1n2C [Compound 117, 2,4-Methyl-6-[(2,3,5,6-tetrafluorophenyl)methyl]-4H-thieno[3,2-b]pyrrole[3,2-d]pyridazinone] | 59.4 ± 6.3 | 345 ± 60 | – | – |
| Cc1cc2c(s1)c1cnn(Cc3cccc(C)c3F)c(=O)c1n2C [Compound 118, 2,4-Methyl-6-[(3-methyl-2-fluorophenyl)methyl]-4H-thieno[3,2-b]pyrrole[3,2-d]pyridazinone] | 97.4 ± 6.9 | 35 ± 10 | – | – |
| Cc1cc2c(s1)c1cnn(Cc3ccc(C)c(F)c3F)c(=O)c1n2C [Compound 119, 2,4-Methyl-6-[(4-methyl-2,3-fluorophenyl)methyl]-4H-thieno[3,2-b]pyrrole[3,2-d]pyridazinone] | – | 108 ± 30 | 80.5 ± 5.8 | – |
| CCNc1cccc(S(=O)(=O)N2CCN(S(=O)(=O)c3ccc4c(c3)OCCO4)CC2)c1 [Compound 136] | – | 81 | 63.00 | – |
| CN(C)c1cccc(S(=O)(=O)N2CCN(S(=O)(=O)c3ccc4c(c3)OCCO4)CC2)c1 [Compound 138] | – | 92 | 54.00 | – |
